The nature of the first data set: Anti-ulcer action: indomethacin-induced gastric antral ulcer in rats. Type of data set: in vivo, Male Sprague-Dawley rats. To be noted: Rattus norvegicus, po, 5 h, p.o., 30 min before indomethacin 30 mg/kg s.c., 6 rats per group, doses 1, 3, 10 and 30 mg/kg, read-out: Anti-ulcer action ID50. The text has this:
As the models of gastrointestinal ulcers, restraint and water-immersion stress-induced ulcer, indomethacin-induced ulcer and ethanol-induced gastric mucosal lesions have been used. However, as a model mimicking human gastric ulcer, indomethacin-induced gastric antral ulcer was reported in "Gastroenterology" (Satoh et al. 81, p. 719, 1981), which is considered to be of value as an experimental model. Therefore, the following are data of anti-ulcer actions of the object compounds (I) and of some representable known compounds, on the ulcer model in the above-mentioned literature reference.
Male Sprague-Dawley rats of 7-weeks old were fasted for 24 hours. These animals were administered test compounds into stomach by using a gastric tube. After 30 minutes, indomethacin, 30 mg/kg subcutaneously, was administered. During 30-90 minutes after the administration of indomethacin, these animals had free access to chow pellets (Japan Clea, CE-2). At 5 hours after the administration of indomethacin, 1 ml of 1% Evans blue was injected to the animals via the tail vein, followed by sacrificing these animals with carbon dioxide gas. The stomach was removed together with the lower part of esophagus and the duodenum. The esophagus was clipped, 10 ml of 1% formalin solution was instilled into the stomach from the duodenum, and then the duodenum was clipped. The whole stomach was immersed in 1% formalin solution. About 15 minutes later, the stomachs were opened along the greater curvature. The area of the lesions which occurred in the gastric antral mucosa was measured under a dissecting microscope with a square-grid eye piece (x10). The sum total of the individual lesions in each animal was measured, and the average value per group was calculated. Based on the difference between the average value of each group and that of the control group, the inhibition rate was determined. The test compound and indomethahacin were suspended in a 5% gum arabic solution, respectively and administered in a volume of 2 ml/kg.
^(a) Using 6 rats per group, each of the test compounds was
administered in a dose of 1, 3, 10 and 30 mg/kg to determine ID50.
Turning to `Cc1c(OCC(F)(F)C(F)F)ccnc1C[S+]([O-])c1nc2ccccc2[nH]1` (centres unmarked), the ED50 is under 1 mg/kg.
Still for that read-out and setting: with `[O-][S+](Cc1cc(OCC(F)(F)C(F)F)ccn1)c1nc2ccccc2[nH]1` (centres unmarked) the figure was 1.3 mg/kg; with `[O-][S+](Cc1cc(OCC(F)(F)C(F)(F)F)ccn1)c1nc2ccccc2[nH]1` (centres unmarked), 1.3 mg/kg; with `Cc1c(OCC(F)(F)C(F)(F)F)ccnc1CSc1nc2ccccc2[nH]1` [2-[3-methyl-4-(2,2,3,3,3-pentafluoropropoxy)-pyrid-2-yl]methylthiobenzimidazole], 3.7 mg/kg.
Take `Cc1c(OCC(F)(F)C(F)(F)F)ccnc1C[S+]([O-])c1nc2ccccc2[nH]1` (centres unmarked) [2-[3-methyl-4-(2,2,3,3,3-pentafluoropropoxy)pyrid-2-yl]methylsulfinylbenzimidazole]: the ED50 was under 1 mg/kg.
`Cc1c(OCC(F)(F)F)ccnc1C[S+]([O-])c1nc2ccccc2[nH]1` (centres unmarked) [R^1=H, R^2=CH3, R^3=H, R^4=CH2 CF3, n=1, 2-[3methyl-4-(2,2,2-trifluoroethoxy)-pyrid-2-yl]methylsulfinylbenzimidazo]: the ED50 is under 1 mg/kg.
On the same count and under the same terms, the figure for `[O-][S+](Cc1cc(OCC(F)(F)F)ccn1)c1nc2ccccc2[nH]1` (centres unmarked) [R^1=H, R^2=H, R^3=H, R^4=CH2 CF3, n=1] is 2.4 mg/kg.

The next data set in a line: Toxicity, oral administration to mice. To be noted: even in a dose of 2000 mg/kg. The format is in vivo.
With `Cc1c(OCC(F)(F)C(F)(F)F)ccnc1C[S+]([O-])c1nc2ccccc2[nH]1` (centres unmarked) [2-[3-methyl-4-(2,2,3,3,3-pentafluoropropoxy)pyrid-2-yl]methylsulfinylbenzimidazole], the “fatal effect on oral administration” value is “no fatal effect”.
